Patent EP0536208B1, “1,2-DIHYDRO-3H-DIBENZISOQUINOLINE-1,3-DIONE ANTICANCER AGENTS” (RESEARCH CORPORATION TECHNOLOGIES, INC., priority 1990, dated 1992)
Values after ≈ are worked out from the molar mass of the structure shown. Read-outs that look alike come from different tables or passages of the source.

Assays:
[1] = test system: Resistant L1210; assay: In vitro tumor cell viability assay using MTT dye; type: cell-based, Murine; conditions: for IC50: Mus musculus
Method: Compounds of the present invention were tested for their in vitro activity in tumor cells sensitive and resistant to standard anti-cancer agents. The tumor cell lines used in this protocol are 8226 human Myeloma^1; 8226/Dox-40^2, L-1210/Murine Leukemia, multidrug resistant L-210/^3, 2780 Human Ovarian Cancer and 2780/AD^4. Each of these resistant cell lines is known as a multidrug resistant or "MDR" cell line. These cell lines produce a 170,00 molecular weight membrane protein termed the P-glycoprotein which acts as an active drug efflux pump. Thus, once a cell produces the P-glycoprotein, it has the capability of pumping out of the cell a large variety of unrelated natural products. […] The protocol for measuring the effectiveness of compounds of the present invention is as follows: 2) In Vitro Tumor Cell Viability Assays Using MTT-Dye: Tumors are processed into a single cell suspension as described above. The cells are plated at a concentration of 3-5 X 10^4/1 mL well into plastic 96-well plates. […] Afterwards the medium containing the drug is removed, the cells are "washed" by centrifugation in fresh medium or phosphate-buffered saline (pH 7.4). A tetrazolium dye is then added (3,4,5-dimethylthiazol-2-yl)-2,5-diphenyl tetrazolium bromide (MTT). This dye forms a colored formazan product upon activation by mitochondrial reductases in viable cells. Typically, the formazan product is solubilized in acid-propanol or DMSO. The intensity of the color is proportional to viable cell numbers and this is quantitated by spectrophotometric absorbance ([…]) on a micro ELISA plate reader. Test results are calibrated in % control absorbance from untreated tumor cells (Mossman T: J Immunol Meth 65:55-63, 1983). Using the above procedure, Compound 1 was tested for its cytotoxic activity with respect to various tumor cell lines.

[2] = test system: Colon-38 Adenocarcinoma; assay: Tumor growth delay in mice, Colon-38 model; type: in vivo; conditions: 20mg implants in C57B/mice; 15 mg/kg; d3,6; intraperitoneally
Excerpt: Thus, in the lower level resistant cell lines, such as the ten-fold mitomycin C resistant L1210 and the tenfold adriamycin resistant 2780 ovarian cancer, Compound 1 maintained its complete activity as shown in Table II. The anti-tumor activity of compounds of the present invention in in vivo mouse murine models were studied. 3) Survival Studies In Tumor-Bearing Mice: 3.1 P-388 Leukemia Modles: One million P-388 leukemia cells originally obtained from American Type Culture Collection (Rockville, MD) are implanted into the peritoneum of adult DBA-2J male mice (Jackson Laboratories, Bar Harbor, ME). Twenty four hours later, drugs diluted in physiological saline are injected intraperitoneally at a volume of 0.1 mL/10 g body weight. The mice (10/group) are then followed for survival daily and compared to untreated tumor bearing mice. […] The perpendicular widths of the tumors are measured by caliper thrice weekly and converted to an estimated tumor mass according to the formula: ((1 X W)^2)/(2)= grams of tumor. [formula] wherein • W = width of tumor • l = length of tumor Tumor growth delay is calculated as the difference in days for tumors in treated mice to reach an estimated mass 750 mg or 1.5 g compared to that in untreated controls: Days to reach 750 mg (Treated - Control) = Days of Tumor Growth Delay [formula] […]

Structure (SMILES): CN(C)CCN1C(=O)c2cccc3cc4ccccc4c(c23)C1=O [Compound 1, 2-[2'-(dimethylamino)ethyl]-1,2-dihydro-3H-dibenz(deh)isoquinoline-1,3-dione]
- IC50 ([1]; 144 h, Resistant L1210, six day MTT assay, continuous drug exposure, read-out: Concentration for 50% inhibition of tumor cells): 2.5 ng/mL (≈ 7.85 nM)
- IC50 ([1]; L1210, 96 h, L-1210/ MDR, P-glycoprotein (+), 10-fold resistance to Mitomycin C, 4-day drug exposure, MTT dye reduction, read-out: Activity (IC50)): 3 ng/mL (≈ 9.42 nM)
- IC50 ([1]; L1210 Leukemia Cells Resistant, continuous exposure, MTT dye assay, read-out: IC50 VALUES): 2.5 ng/mL (≈ 7.85 nM)
- Cross Resistance ([1]; resistant L-1210/ versus L-1210/Murine Leukemia): None
- Experimental Activity, Days of Tumor Growth Delay [2]: 6 days TT
